Data: publication PMC11855827, “High-Throughput Screening of Five Compound Libraries for Anthelmintic Activity and Toxicity Leads to the Discovery of Two Flavonoid Compounds” (International Journal of Molecular Sciences, 2025)
Like-named read-outs stand apart in the source and are kept apart here.

Test system: C. elegans
Assay: microbe, parasite or virus in culture
Details: Caenorhabditis elegans
[1] = 0 h, read-out: Percentage of motility inhibition 0 h, Table S2, C. elegans SS assay, 110 μM, 0 h, averages of 4 data points
[2] = 24 h, read-out: Percentage of motility inhibition 24 h, Table S2, C. elegans SS assay, 110 μM, 24 h, averages of 4 data points
[3] = 0 h, read-out: Percentage of motility inhibition 0 h
[4] = 24 h, read-out: Percentage of motility inhibition 24 h

SMILES | inhibition at 110 µM [1] [%] | inhibition at 110 µM [2] [%] | inhibition at 110 µM [3] [%] | inhibition at 110 µM [4] [%]
C[C@@H]1O[C@@H](O[C@H]2[C@H](OC(=O)[C@]34CCC(C)(C)C[C@H]3C3=CC[C@@H]5[C@@]6(C)C[C@H](O)[C@H](O[C@@H]7O[C@H](CO)[C@@H](O)[C@H](O)[C@H]7O)C(CO)(CO)[C@@H]6CC[C@@]5(C)[C@]3(C)C[C@H]4O)OC[C@H](O)[C@@H]2O)[C@H](O)[C@H](O)[C@H]1O[C@@H]1OC[C@@H](O)[C@H](O[C@@H]2OC[C@](O)(CO)[C@H]2O)[C@H]1O [Platycodin D] | 0 | 15 |  | 
C[C@@H]1O[C@@H](O[C@H]2[C@H](OC(=O)[C@]34CCC(C)(C)C[C@H]3C3=CC[C@@H]5[C@@]6(C)C[C@H](O)[C@H](O[C@@H]7O[C@H](CO)[C@@H](O)[C@H](O[C@@H]8O[C@H](CO)[C@@H](O)[C@H](O)[C@H]8O)[C@H]7O)C(CO)(CO)[C@@H]6CC[C@@]5(C)[C@]3(C)C[C@H]4O)OC[C@H](O)[C@@H]2O)[C@H](O)[C@H](O)[C@H]1O[C@@H]1OC[C@@H](O)[C@H](O[C@@H]2OC[C@](O)(CO)[C@H]2O)[C@H]1O [Platycodin D2] | 0 | 2 |  | 
C[C@@H]1O[C@@H](O[C@H]2[C@H](O)[C@@H](O)[C@H](OC[C@H]3O[C@@H](OC(=O)[C@]45CCC(C)(C)C[C@H]4C4=CC[C@@H]6[C@@]7(C)C[C@@H](O)[C@H](O)[C@@](C)(CO)[C@@H]7[C@H](O)C[C@@]6(C)[C@]4(C)CC5)[C@H](O)[C@@H](O)[C@@H]3O)O[C@@H]2CO)[C@H](O)[C@H](O)[C@H]1O [Asiaticoside B] | 0 | 5 |  | 
C[C@]1(COc2ccc(N3CCC(Oc4ccc(OC(F)(F)F)cc4)CC3)cc2)Cn2cc([N+](=O)[O-])nc2O1 [Delamanid] | 42 | 21 |  | 
Cc1nc(C)c(Cl)c(O)c1Cl [Clopidol] | 7 | 11 |  | 
CNC1CCCN(c2c(F)cc3c(=O)c(C(=O)O)cn(C4CC4)c3c2OC)C1 (stereo not drawn) [Balofloxacin] | 0 | 20 |  | 
Cc1cc(C(C#N)c2ccc(Cl)cc2)c(Cl)cc1NC(=O)c1cc(I)cc(I)c1O (stereo not drawn) [Closantel] | 4 | 48 |  | 
CCN(CC)CCNc1ccc(CO)c2sc3ccccc3c(=O)c12 [Hycanthone] | 31 | 26 |  | 
O=C1CN(/N=C/c2ccc([N+](=O)[O-])o2)C(=O)N1 [Nitrofurantoin] | 24 | 4 |  | 
O=c1c(O)c(-c2ccccc2)oc2cc(O)cc(O)c12 [Galangin] | 10 | 8 |  | 
CCN1C[C@]2(COC)CC[C@H](OC)[C@]34C1[C@H](C[C@H]23)[C@@]1(O)C[C@H](OC)[C@H]2C[C@@H]4[C@@H]1[C@H]2O [Talatisamine] | 6 | 0 |  | 
CC(C1CC1)C(O)(Cn1cncn1)c1ccc(Cl)cc1 (stereo not drawn) [Cyproconazole] | 42 | 0 |  | 
COC(=O)C1=CC[C@@]23CC[C@@H]([C@@](C)(/C=C/C=C(\C)C(=O)O)OC2=O)[C@@]3(OC(C)=O)CC1 [Pseudolaric Acid B] |  |  | 0 | 9
O=c1cc(-c2ccccc2)oc2cccc(O)c12 [5‐Hydroxyflavone] | 12 | 21 |  | 
C=C1C(=O)[C@]23[C@H](O)[C@H]1CC[C@H]2[C@@]12CO[C@]3(O)[C@@H](O)[C@@H]1C(C)(C)CC[C@@H]2O [Oridonin] | 0 | 3 |  | 
CC(=O)O[C@H]1C(=O)[C@@]2(C)[C@H]([C@H](OC(=O)c3ccccc3)[C@]3(O)C[C@H](O)C(C)=C1C3(C)C)[C@]1(OC(C)=O)CO[C@@H]1C[C@@H]2O [Baccatin III] | 0 | 0 |  | 
CC1=CC[C@@H](C(C)(C)O)CC1 [α-Terpineol] | 22 | 17 |  | 
Oc1cc(O)c2c(c1)O[C@@H](c1ccc(O)c(O)c1)[C@H](O)C2 [(‐)‐Catechin] | 8 | 9 |  | 
O=c1cc(-c2ccc(O)cc2)oc2cc(O[C@@H]3O[C@H](CO)[C@@H](O)[C@H](O)[C@H]3O[C@@H]3OC[C@](O)(CO)[C@H]3O)cc(O)c12 [Apiin] | 24 | 0 |  | 
CC1(C)CC[C@]2(C(=O)O[C@@H]3O[C@H](CO)[C@@H](O)[C@H](O)[C@H]3O)CC[C@]3(C)C(=CC[C@@H]4[C@@]5(C)CC[C@H](O[C@@H]6O[C@H](C(=O)O)[C@@H](O)[C@H](O)[C@H]6O)C(C)(C)[C@@H]5CC[C@]43C)[C@@H]2C1 [Chikusetsusaponin Iva] | 5 | 14 |  | 
NCCCC[C@H](N)C(=O)O [L-Lysine] |  |  | 19 | 2
C=C1C(=O)O[C@@H]2C[C@@]3(C)[C@@H](O)C[C@@H](O)C(=C)[C@@H]3C[C@H]12 [Granilin] | 4 | 13 |  | 
C=C1C(=O)[C@@]23[C@H](O)C[C@@H]4C(C)(C)C(=O)CC[C@@]4(C)[C@@H]2CC[C@@H]1[C@H]3O [Glaucocalyxin A] | 0 | 7 |  | 
C=C1C(=O)O[C@@H]2O[C@@]3(C)CC[C@H]4[C@H](C)CC[C@@H]1[C@@]24OO3 [Artemisitene] | 0 | 9 |  | 
